In series [1] the target is Lipoxygenase (Glycine max, UniProt Q39829). Nature of the series: Inhibition of soybean LOX assessed as reduction in conversion of sodium linoleate to 13-hydroperoxylinoleic acid by UV spectroscopy.
A short description of series [2]: Antioxidant activity assessed as inhibition of AAPH-induced linoleic acid lipid peroxidation at 100 uM. In kind it is physicochemical.
A short description of series [3]: Antioxidant activity assessed as DPPH radical scavenging activity at 100 uM after 20 mins by spectrophotometry. Format: physicochemical. On the technique in general: Loss of DPPH colour is used to gauge radical scavenging.
A short description of series [4]: Antioxidant activity assessed as DPPH radical scavenging activity at 100 uM after 60 mins by spectrophotometry. Format: physicochemical. The following applies: 1 h.
For series [5], the target named is Lipoxygenase (Glycine max) (UniProt Q39829). Kind of series: Inhibition of soybean LOX assessed as reduction in conversion of sodium linoleate to 13-hydroperoxylinoleic acid at 100 uM by UV spectroscopy.

SMILES strings stand for the structures.

The IC50 is the concentration needed to halve the response being measured. For the compound `COc1ccc(-c2cc3cc(Br)ccc3oc2=O)cc1OC`, the concentration for half-maximal inhibition (IC50) in series [1] (read-out: IC50) was 81 µM. In addition, the “inhibition (INH)” value in series [2] stood at 56%; in series [3], 11%; in series [4] it was 12%.

For the compound `Cc1c(-c2ccc(O)c(O)c2)c(=O)oc2ccc(Br)cc12`, the IC50 in series [1] (read-out: IC50) is 75 µM. For the same compound, the “inhibition (INH)” value was found to be 75% in series [2], 77% in series [3] and 62% in series [4].

What is called inhibition is the share of the control response that was lost under treatment. Take `Cc1c(-c2ccc(O)c(O)c2)c(=O)oc2c(Br)cc(Br)cc12`: the results for the “inhibition (INH)” value in series [2], in series [3] and in series [4] were 75%, 76% and 78%, respectively. Also, the inhibition in series [5] came to 7%.

On to `COc1ccc(-c2c(C)c3cc(Br)ccc3o/c2=N/Nc2ccccc2)cc1OC`, for which the “inhibition (INH)” value in series [2] was determined as 55%; in series [3] it was 85%; in series [4], 86%. Besides, in series [5], the inhibition stood at 28%.

`CC(C)=CCOc1ccc(-c2c(C)c3cc(Br)cc(Br)c3oc2=O)cc1OCC=C(C)C`: the IC50 in series [1] (read-out: IC50) was 37 µM. Moreover, the “inhibition (INH)” value in series [2] is 100%; in series [3], “Not Active”; in series [4], 9%.

In the case of `CC(C)=CCOc1ccc(-c2c(C)c3cc(Br)ccc3oc2=O)cc1OCC=C(C)C`, the 50% inhibitory concentration (IC50) in series [1] (read-out: IC50) worked out at 75 µM. The “inhibition (INH)” value in series [2] turned out to be 92%; in series [3], 67%; in series [4], 68%.

Regarding `COc1ccc(-c2c(C)c3ccccc3o/c2=N/Nc2ccccc2)cc1`, the concentration for half-maximal inhibition (IC50) result in series [1] is “Not Active”. In addition, the entries for the “inhibition (INH)” value in series [2], in series [3] and in series [4] were 47%, 84% and 85%, respectively.

Turning to `Cc1c(-c2ccc(O)c(O)c2)c(=S)oc2ccc(Br)cc12`, in series [1] (read-out: IC50), the IC50 is 90 µM. For the same compound, the “inhibition (INH)” value in series [2] is on record as 59%; in series [3] it was 41%; in series [4], 35%.

As for `COc1ccc(-c2c(C)c3ccccc3oc2=S)cc1`, the “inhibition (INH)” value in series [2] turned out to be 11%; in series [3] it was 14%; in series [4], 11%. Moreover, the inhibition in series [5] is 35%.

For the compound `COc1ccc(-c2c(C)c3cc(Cl)ccc3oc2=S)cc1OC`, the IC50 entry in series [1] is listed as “Not Active”. Also, the “inhibition (INH)” value in series [2] is listed as 50%; in series [3], “Not Active”; in series [4] it was 9%.

As to `CC(C)=CCOc1ccc(-c2cc3cc(Br)ccc3oc2=O)cc1OCC=C(C)C`, in series [1] (read-out: IC50), the IC50 is 40 µM. Moreover, the “inhibition (INH)” value in series [2] is given as 99%; in series [3], “Not Active”; in series [4] it was 5%.

For the compound `COc1ccc(-c2c(C)c3cc(Br)cc(Br)c3oc2=O)cc1OC`, the results for the “inhibition (INH)” value in series [2], in series [3] and in series [4] were 58%, 13% and 2%, respectively.

In the case of `CC(Cc1ccc(O)c(O)c1)C(C)Cc1ccc(O)c(O)c1` (configuration not stated) [NORDIHYDROGUAIARETIC ACID], the IC50 in series [1] (read-out: IC50) is 51 µM. The “inhibition (INH)” value in series [3] is 84%; in series [4], 83%.

With `COc1ccc(-c2ccc3oc(=O)c(-c4ccc(OC)c(OC)c4)c(C)c3c2)cc1`, the “inhibition (INH)” value in series [2] came to 7%; in series [3], 17%; in series [4], 7%. The inhibition in series [5] stood at 44%.

Regarding `COc1ccc(-c2c(C)c3cc(-c4ccc(C=O)cc4)ccc3oc2=O)cc1OC`, the “inhibition (INH)” value in series [2] stood at 64%; in series [3], 11%; in series [4], 68%. Besides, the inhibition in series [5] amounted to 1%.

With `O=c1oc2ccc(Br)cc2cc1-c1ccc(O)c(O)c1`, the results for the “inhibition (INH)” value in series [2], in series [3] and in series [4] were 26%, 78% and 80%, respectively. The inhibition in series [5] came out at 26%.

Take `Cc1c(C)c2c(c(C)c1O)CCC(C)(C(=O)O)O2` (configuration not stated) [TROLOX]: the “inhibition (INH)” value in series [2] is 63%.

In the case of `COc1ccc(-c2c(C)c3cc(Br)ccc3oc2=S)cc1OC`, the IC50 in series [1] (read-out: IC50) was found to be 65 µM. Further, the “inhibition (INH)” value in series [2] was 96%; in series [3] it was 26%; in series [4] it was 21%.

Source of the values: ChEMBL document CHEMBL3352712, “Structural modifications of coumarin derivatives: Determination of antioxidant and lipoxygenase (LOX) inhibitory activity” (Bioorg Med Chem, 2014).
